{"source": "ChEMBL document CHEMBL1148572", "about": "“1-((S)-2-aminopropyl)-1H-indazol-6-ol: a potent peripherally acting 5-HT2 receptor agonist with ocular hypotensive activity” (J Med Chem, 2006)", "key": {"[1]": {"target": "T1, B2 bradykinin receptor (Homo sapiens) (UniProt P30411)", "T1 sequence (whole entry)": "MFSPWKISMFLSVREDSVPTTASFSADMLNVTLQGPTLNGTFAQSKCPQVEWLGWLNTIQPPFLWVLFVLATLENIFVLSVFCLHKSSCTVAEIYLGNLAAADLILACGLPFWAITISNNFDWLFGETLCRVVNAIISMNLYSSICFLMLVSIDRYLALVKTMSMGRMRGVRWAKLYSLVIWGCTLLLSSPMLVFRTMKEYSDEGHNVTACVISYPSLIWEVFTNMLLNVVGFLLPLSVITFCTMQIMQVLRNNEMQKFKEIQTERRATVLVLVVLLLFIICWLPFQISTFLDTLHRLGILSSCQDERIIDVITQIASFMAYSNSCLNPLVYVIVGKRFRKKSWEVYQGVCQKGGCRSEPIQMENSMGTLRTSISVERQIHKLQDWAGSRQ", "experiment": "Inhibition of bradykinin 2 receptor at 10 uM"}, "[2]": {"target": "Serotonin 3 (5-HT3) receptor", "experiment": "Inhibitory activity against 5HT3 receptor", "type": "protein-complex assay, Homo sapiens"}, "[3]": {"target": "Muscarinic acetylcholine receptor (Homo sapiens) (UniProt P20309+P08173+P11229+P08172+P08912)", "experiment": "Inhibition of non selective binding to muscarinic receptor at 100 nM", "type": "protein assay"}, "[4]": {"target": "Sodium-dependent noradrenaline transporter (Homo sapiens, UniProt P23975)", "sequence (P23975 whole entry)": "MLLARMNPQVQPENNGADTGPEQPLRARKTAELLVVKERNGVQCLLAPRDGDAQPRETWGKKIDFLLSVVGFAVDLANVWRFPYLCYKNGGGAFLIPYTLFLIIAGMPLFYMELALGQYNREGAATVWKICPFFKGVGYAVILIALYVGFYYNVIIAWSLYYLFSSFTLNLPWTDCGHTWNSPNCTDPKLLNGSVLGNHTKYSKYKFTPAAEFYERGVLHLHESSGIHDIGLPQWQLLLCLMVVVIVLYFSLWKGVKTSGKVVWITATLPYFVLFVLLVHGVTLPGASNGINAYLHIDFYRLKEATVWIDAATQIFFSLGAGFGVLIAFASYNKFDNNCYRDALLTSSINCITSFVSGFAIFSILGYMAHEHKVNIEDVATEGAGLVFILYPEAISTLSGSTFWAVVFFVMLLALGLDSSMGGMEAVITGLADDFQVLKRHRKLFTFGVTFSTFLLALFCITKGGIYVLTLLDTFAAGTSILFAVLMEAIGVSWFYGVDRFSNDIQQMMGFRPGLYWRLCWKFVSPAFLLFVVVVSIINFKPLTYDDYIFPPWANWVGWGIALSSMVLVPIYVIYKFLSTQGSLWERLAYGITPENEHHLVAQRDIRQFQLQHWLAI", "experiment": "Inhibitory activity against NET"}, "[5]": {"target": "T2, Protein kinase C, PKC; classical/novel (Homo sapiens) (UniProt O94806+P17252+P05129+Q05655+P05771+Q02156+P24723+Q15139+Q04759)", "experiment": "Inhibition of PDBu activated protein kinase C at 100 nM", "type": "protein assay"}, "[6]": {"target": "T2, Protein kinase C, PKC; classical/novel (Homo sapiens)", "experiment": "Inhibition of PDBu activated protein kinase C at 10 uM", "type": "protein assay"}, "[7]": {"target": "T3, Type-1 angiotensin II receptor (Homo sapiens) (UniProt P30556)", "T3 sequence (whole entry)": "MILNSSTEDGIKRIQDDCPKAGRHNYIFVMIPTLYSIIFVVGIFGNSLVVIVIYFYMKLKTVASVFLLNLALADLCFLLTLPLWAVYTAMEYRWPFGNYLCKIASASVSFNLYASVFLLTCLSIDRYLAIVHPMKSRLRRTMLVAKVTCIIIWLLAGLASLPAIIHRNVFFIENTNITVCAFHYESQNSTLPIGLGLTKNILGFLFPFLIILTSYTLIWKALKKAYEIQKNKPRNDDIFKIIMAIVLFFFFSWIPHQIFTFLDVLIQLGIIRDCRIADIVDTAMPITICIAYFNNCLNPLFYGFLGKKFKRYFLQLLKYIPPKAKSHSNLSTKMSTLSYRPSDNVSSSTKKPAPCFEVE", "experiment": "Inhibition of type 1 angiotensin 2 receptor at 100 nM"}, "[8]": {"experiment": "Inhibition of P2Y purinergic receptor at 10 uM"}, "[9]": {"target": "Glutamate receptor ionotropic AMPA (Homo sapiens) (UniProt P48058+P42263+P42262+P42261)", "experiment": "Inhibition of AMPA receptor at 10 uM", "type": "protein-complex assay"}, "[10]": {"target": "T4, monoamine oxidase A (MAO-A) (Rattus norvegicus, UniProt P21396)", "T4 sequence (P21396 whole entry)": "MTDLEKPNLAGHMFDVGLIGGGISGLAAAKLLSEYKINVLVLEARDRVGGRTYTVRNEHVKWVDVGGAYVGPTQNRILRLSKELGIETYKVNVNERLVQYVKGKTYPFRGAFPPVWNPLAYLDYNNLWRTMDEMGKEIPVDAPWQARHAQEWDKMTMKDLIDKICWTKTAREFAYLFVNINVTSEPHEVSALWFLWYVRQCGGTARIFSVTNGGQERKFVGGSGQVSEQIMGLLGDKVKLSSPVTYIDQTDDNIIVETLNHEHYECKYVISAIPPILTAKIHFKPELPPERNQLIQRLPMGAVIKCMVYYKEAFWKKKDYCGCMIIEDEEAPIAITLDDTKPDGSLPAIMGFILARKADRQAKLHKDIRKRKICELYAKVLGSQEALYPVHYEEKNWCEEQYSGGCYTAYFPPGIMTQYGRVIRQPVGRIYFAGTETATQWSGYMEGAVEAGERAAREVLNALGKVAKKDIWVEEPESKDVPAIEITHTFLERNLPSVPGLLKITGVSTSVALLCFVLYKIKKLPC", "experiment": "Inhibition of monoamine oxidase A in rat brain at 1 nM", "type": "tissue-based"}, "[11]": {"target": "L-type calcium channel, dihydropyridine site (Homo sapiens, UniProt O60840+Q01668+Q13698+Q13936)", "experiment": "Inhibitory activity at dihydropyridine site of Calcium channel L type at 1 nM", "type": "protein assay"}}, "data": [{"smiles": "C[C@H](N)Cn1ncc2ccc(O)cc21", "values": [{"measurement": "inhibition", "setting": "[1]", "value": 0.11, "unit": "%"}, {"measurement": "Ki", "setting": "[2]", "value": "> 10", "unit": "µM"}, {"measurement": "inhibition", "setting": "[3]", "value": 0.28, "unit": "%"}, {"measurement": "Ki", "setting": "[4]", "value": "> 10", "unit": "µM"}, {"measurement": "inhibition", "setting": "[5]", "value": 11.3, "unit": "%"}, {"measurement": "inhibition", "setting": "[6]", "value": 22.8, "unit": "%"}, {"measurement": "inhibition", "setting": "[7]", "value": 7.33, "unit": "%"}, {"measurement": "inhibition", "setting": "[8]", "value": 12.2, "unit": "%"}, {"measurement": "inhibition", "setting": "[9]", "value": 7.62, "unit": "%"}, {"measurement": "inhibition at 0.001 µM", "setting": "[10]", "value": -14.4, "unit": "%"}, {"measurement": "inhibition at 0.001 µM", "setting": "[11]", "value": 2.17, "unit": "%"}]}]}
